# According to ChEMBL document CHEMBL2163283, “Design and synthesis of novel stiripentol analogues as potential anticonvulsants” (Eur J Med Chem, 2012):
# Calls of active or inactive are those of the source. No cut-off for these calls is given here.
# How the values were obtained:
# [1] = test system: Mus musculus; test: Anticonvulsant activity in Swiss albino mouse assessed as protection against subcutaneous pentylenetetrazol-induced seizures at 390 umol/kg, ip administered 30 mins before pentylenetetrazole challenge measured after 30 mins; format: functional
# [2] = test system: Mus musculus; test: Anticonvulsant activity in Swiss albino mouse assessed as protection against subcutaneous pentylenetetrazol-induced seizures at 390 umol/kg, ip administered 30 mins before pentylenetetrazole challenge measured after 30 mins relative to stiripentol; format: functional
# [3] = test system: Mus musculus; test: Anticonvulsant activity in Swiss albino mouse assessed as maximal electroshock-induced seizures at 390 umol/kg, ip administered 30 mins before electroshock challenge; format: functional, organism-based
# [4] = test system: Mus musculus; test: Anticonvulsant activity in Swiss albino mouse assessed as protection against subcutaneous pentylenetetrazol-induced seizures at 340 umol/kg, ip administered 30 mins before pentylenetetrazole challenge measured after 30 mins; format: functional
# [5] = test system: Mus musculus; test: Anticonvulsant activity in Swiss albino mouse assessed as protection against subcutaneous pentylenetetrazol-induced seizures at 340 umol/kg, ip administered 30 mins before pentylenetetrazole challenge measured after 30 mins relative to stiripentol; format: functional
# [6] = test system: Mus musculus; test: Anticonvulsant activity in Swiss albino mouse assessed as maximal electroshock-induced seizures at 340 umol/kg, ip administered 30 mins before electroshock challenge; format: functional
# [7] = test system: Mus musculus; test: Anticonvulsant activity in Swiss albino mouse assessed as protection against subcutaneous pentylenetetrazol-induced seizures at 330 umol/kg, ip administered 30 mins before pentylenetetrazole challenge measured after 30 mins; format: functional
# [8] = test system: Mus musculus; test: Anticonvulsant activity in Swiss albino mouse assessed as protection against subcutaneous pentylenetetrazol-induced seizures at 330 umol/kg, ip administered 30 mins before pentylenetetrazole challenge measured after 30 mins relative to stiripentol; format: functional
# [9] = test system: Mus musculus; test: Anticonvulsant activity in Swiss albino mouse assessed as maximal electroshock-induced seizures at 330 umol/kg, ip administered 30 mins before electroshock challenge; format: functional
# [10] = test system: Mus musculus; test: Anticonvulsant activity in Swiss albino mouse assessed as protection against subcutaneous pentylenetetrazol-induced seizures at 410 umol/kg, ip administered 30 mins before pentylenetetrazole challenge measured after 30 mins relative to stiripentol; format: functional
# [11] = test system: Mus musculus; test: Anticonvulsant activity in Swiss albino mouse assessed as protection against subcutaneous pentylenetetrazol-induced seizures at 410 umol/kg, ip administered 30 mins before pentylenetetrazole challenge measured after 30 mins; format: functional
# [12] = test system: Mus musculus; test: Anticonvulsant activity in Swiss albino mouse assessed as maximal electroshock-induced seizures at 410 umol/kg, ip administered 30 mins before electroshock challenge; format: functional
# [13] = test system: Mus musculus; test: Anticonvulsant activity in Swiss albino mouse assessed as protection against subcutaneous pentylenetetrazol-induced seizures at 370 umol/kg, ip administered 30 mins before pentylenetetrazole challenge measured after 30 mins; format: functional
# [14] = test system: Mus musculus; test: Anticonvulsant activity in Swiss albino mouse assessed as protection against subcutaneous pentylenetetrazol-induced seizures at 370 umol/kg, ip administered 30 mins before pentylenetetrazole challenge measured after 30 mins relative to stiripentol; format: functional
# [15] = test system: Mus musculus; test: Anticonvulsant activity in Swiss albino mouse assessed as maximal electroshock-induced seizures at 370 umol/kg, ip administered 30 mins before electroshock challenge; format: functional, organism-based
# [16] = test system: Mus musculus; test: Anticonvulsant activity in Swiss albino mouse assessed as protection against subcutaneous pentylenetetrazol-induced seizures at 384 umol/kg, ip administered 30 mins before pentylenetetrazole challenge measured after 30 mins; format: functional
# [17] = test system: Mus musculus; test: Anticonvulsant activity in Swiss albino mouse assessed as protection against subcutaneous pentylenetetrazol-induced seizures at 427 umol/kg, ip administered 30 mins before pentylenetetrazole challenge measured after 30 mins; format: functional
# [18] = test system: Mus musculus; test: Anticonvulsant activity in Swiss albino mouse assessed as protection against subcutaneous pentylenetetrazol-induced seizures at 491 umol/kg, ip administered 30 mins before pentylenetetrazole challenge measured after 30 mins; format: functional
# [19] = test system: Mus musculus; test: Anticonvulsant activity in Swiss albino mouse assessed as protection against subcutaneous pentylenetetrazol-induced seizures at 534 umol/kg, ip administered 30 mins before pentylenetetrazole challenge measured after 30 mins; format: functional
# [20] = test system: Mus musculus; test: Anticonvulsant activity in Swiss albino mouse assessed as protection against subcutaneous pentylenetetrazol-induced seizures at 576 umol/kg, ip administered 30 mins before pentylenetetrazole challenge measured after 30 mins; format: functional
# [21] = test system: Mus musculus; test: Anticonvulsant activity in Swiss albino mouse assessed as protection against subcutaneous pentylenetetrazol-induced seizures at 640 umol/kg, ip administered 30 mins before pentylenetetrazole challenge measured after 30 mins; format: functional
# [22] = test system: Mus musculus; test: Anticonvulsant activity in Swiss albino mouse assessed as maximal electroshock-induced seizures at 640 umol/kg, ip administered 30 mins before electroshock challenge; format: functional
# [23] = test system: Mus musculus; test: Anticonvulsant activity in Swiss albino mouse assessed as protection against subcutaneous pentylenetetrazol-induced seizures at 747 umol/kg, ip administered 30 mins before pentylenetetrazole challenge measured after 30 mins; format: functional
# [24] = test system: Mus musculus; test: Anticonvulsant activity in ip dosed Swiss albino mouse assessed as protection against subcutaneous pentylenetetrazol-induced seizures administered 30 mins before pentylenetetrazole challenge measured after 30 mins; format: functional
# [25] = test system: Mus musculus; test: Anticonvulsant activity in ip dosed Swiss albino mouse assessed as maximal electroshock-induced seizures administered 30 mins before electroshock challenge; format: functional
# [26] = test system: Mus musculus; test: Neurotoxicity in Swiss albino mouse assessed as effect on hindlimb grip strength at 747 umol/kg, sc administered measured every 15 mins for 2 hrs; format: toxicity, organism-based; conditions: in vivo
# [27] = test system: Mus musculus; test: Neurotoxicity in Swiss albino mouse assessed as climbing response to inverted mesh at 747 umol/kg, sc administered measured every 15 mins for 2 hrs by wire mesh grasping test; format: toxicity, organism-based; conditions: in vivo
# [28] = test system: Mus musculus; test: Anticonvulsant activity in Swiss albino mouse assessed as protection against subcutaneous pentylenetetrazol-induced seizures at 350 umol/kg, ip administered 30 mins before pentylenetetrazole challenge measured after 30 mins; format: functional
# [29] = test system: Mus musculus; test: Anticonvulsant activity in Swiss albino mouse assessed as protection against subcutaneous pentylenetetrazol-induced seizures at 350 umol/kg, ip administered 30 mins before pentylenetetrazole challenge measured after 30 mins relative to stiripentol; format: functional
# [30] = test system: Mus musculus; test: Anticonvulsant activity in Swiss albino mouse assessed as maximal electroshock-induced seizures at 350 umol/kg, ip administered 30 mins before electroshock challenge; format: functional
# [31] = test system: Mus musculus; test: Neurotoxicity in Swiss albino mouse assessed as effect on hindlimb grip strength at 350 umol/kg, sc administered measured every 15 mins for 2 hrs; format: toxicity, organism-based; conditions: in vivo
# [32] = test system: Mus musculus; test: Neurotoxicity in Swiss albino mouse assessed as climbing response to inverted mesh at 350 umol/kg, sc administered measured every 15 mins for 2 hrs by wire mesh grasping test; format: toxicity, organism-based; conditions: in vivo
smiles,measurement,setting,value
CC(C)(C)C1=NN(C(=O)c2ccc(Cl)cc2)C(c2ccc3c(c2)OCO3)C1 (racemic),Activity,[1],50%
same,Activity,[2],1.26 ratio to stiripentol
same,Activity,[3],inactive
CC(C)(C)C(/C=C/c1ccc2c(c1)OCO2)=N/NC(=O)Nc1ccc(Cl)cc1Cl,Activity,[4],33%
same,Activity,[5],1.26%
same,Activity,[6],16%
CC(C)(C)C(/C=C/c1ccc2c(c1)OCO2)=N/NC(=O)Nc1ccc(Br)cc1,Activity,[7],66%
same,Activity,[8],1.6%
same,Activity,[9],16%
Cc1ccccc1NC(=O)N/N=C(\C=C\c1ccc2c(c1)OCO2)C(C)(C)C,Activity,[1],83%
same,Activity,[2],1.48 ratio to stiripentol
same,Activity,[3],inactive
CC(C)(C)C1=NN(C(=O)Nc2ccc(Br)cc2)C(c2ccc3c(c2)OCO3)C1 (racemic),Activity,[7],33%
same,Activity,[8],1.29%
same,Activity,[9],inactive
CC(C)(C)C1=NN(C(=O)Nc2ccccc2)C(c2ccc3c(c2)OCO3)C1 (racemic),Activity,[10],1.3%
same,Activity,[11],66%
same,Activity,[12],16%
CC(C)(C)C(/C=C/c1ccc2c(c1)OCO2)=N/NC(=O)Nc1ccc(Cl)cc1,Activity,[13],33%
same,Activity,[14],1.15%
same,Activity,[15],inactive
CC(C)(C)C(/C=C/c1ccc2c(c1)OCO2)=N/NC(=O)Nc1ccc(F)cc1,Activity,[1],50%
same,Activity,[2],1.26 ratio to stiripentol
same,Activity,[3],inactive
CC(C)(C)C1=NN(C(=O)Nc2ccc(Cl)cc2)C(c2ccc3c(c2)OCO3)C1 (racemic),Activity,[13],33%
same,Activity,[14],1.15%
same,Activity,[15],inactive
CC(C)(C)C(O)/C=C/c1ccc2c(c1)OCO2 (stereo not drawn) [STIRIPENTOL],Activity,[16],16%
same,Activity,[17],33%
same,Activity,[18],50%
same,Activity,[19],66%
same,Activity,[20],83%
same,Activity,[21],83%
same,Activity,[22],66%
same,Activity,[23],100%
same,ED50,[24],115 mg/kg
same,ED50,[25],277 mg/kg
same,Activity,[26],Non-toxic
same,Activity,[27],Non-toxic
Cc1ccc(C(=O)N2N=C(C(C)(C)C)CC2c2ccc3c(c2)OCO3)cc1 (racemic),Activity,[10],1.04%
same,Activity,[11],33%
same,Activity,[12],33%
CC(C)(C)C1=NN(C(=O)c2ccc(Br)cc2)C(c2ccc3c(c2)OCO3)C1 (racemic),Activity,[28],100%
same,Activity,[29],2.13%
same,Activity,[30],16%
same,ED50,[24],110 mg/kg
same,Activity,[31],Non-toxic
same,Activity,[32],Non-toxic
